A short description of assay [1]: Luminescence Cell-Based Dose Confirmation HTS to Identify Activators of 5'UTR Stem-Loop Driven Alpha-Synuclein mRNA Translation in H4 Neuroglioblastoma Cells. [Related pubchem assays: 1829 (Project Summary), 1814 (Primary HTS)]. The class given is functional.
Assay [2] can be described thus: Luminescence Cell-Based Dose Response HTS to Identify Activators of Luciferase Translation or Activity in H4 […] Cells. [Related pubchem assays: 1829 (Project Summary), 1814 (Primary HTS)]. Format: functional.
For a further assay, the system named is H4. Briefly: Luminescence Cell-Based Dose Response HTS to Identify Activators of 5'UTR Stem-Loop Driven Prion Protein mRNA Translation in H4 Neuroglioblastoma Cells. [Related pubchem assays: 1829 (Project Summary), 1814 (Primary HTS)]. The class given is functional. The note with it: Homo sapiens.
Assay [3] can be described thus: microbe, parasite or virus in culture. The class given is functional. Conditions: Mycobacterium tuberculosis.
Assay [4] is described as follows: Luminescence Cell-Based Dose Retest to Confirm Inhibitors of Cancer Stem Cells. [Related pubchem assays (depositor defined):AID2717, AID2721]. The class given is functional. The note with it: Homo sapiens.
For the next assay, the target named is T1, Protein skinhead-1 (Caenorhabditis elegans, UniProt P34707).
T1 sequence (P34707 whole entry): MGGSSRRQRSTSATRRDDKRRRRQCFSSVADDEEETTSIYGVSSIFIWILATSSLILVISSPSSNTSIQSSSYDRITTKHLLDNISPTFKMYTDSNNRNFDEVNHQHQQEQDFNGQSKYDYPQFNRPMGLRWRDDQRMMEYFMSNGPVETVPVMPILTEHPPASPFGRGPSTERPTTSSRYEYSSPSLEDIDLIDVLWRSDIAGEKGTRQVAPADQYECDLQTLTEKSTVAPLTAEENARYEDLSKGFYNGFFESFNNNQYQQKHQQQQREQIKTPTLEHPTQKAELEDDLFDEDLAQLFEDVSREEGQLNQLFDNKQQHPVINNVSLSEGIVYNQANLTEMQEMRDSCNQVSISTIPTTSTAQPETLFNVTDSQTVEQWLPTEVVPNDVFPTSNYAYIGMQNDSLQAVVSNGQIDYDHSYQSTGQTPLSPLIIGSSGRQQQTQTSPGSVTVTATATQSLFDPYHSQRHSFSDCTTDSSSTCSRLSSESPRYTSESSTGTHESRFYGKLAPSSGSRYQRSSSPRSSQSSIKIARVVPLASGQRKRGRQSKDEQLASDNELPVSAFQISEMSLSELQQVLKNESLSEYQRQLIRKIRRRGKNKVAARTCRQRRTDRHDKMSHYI
The class given is functional.

The next assay deals with P388/ADR. Briefly: cells. Format: functional.
The next assay deals with SN12K1. Briefly: cells. The class given is functional. Conditions: Homo sapiens.
The next assay concerns P388. Briefly: cells. The class given is functional.
Assay [5] has as its system Streptococcus sp. 'group A'. Briefly: Streptococcus pyogenes SK(-)GAS viability under kanamycin – luminescence, BacTiterGlo, confirmation, counter-screen for streptokinase expression inhibitor project, dose response (AID 1900). Format: functional, organism-based.
A further assay concerns the target T2, Streptokinase A (Streptococcus pyogenes serotype M1, UniProt P10520).
T2 sequence (P10520 whole entry): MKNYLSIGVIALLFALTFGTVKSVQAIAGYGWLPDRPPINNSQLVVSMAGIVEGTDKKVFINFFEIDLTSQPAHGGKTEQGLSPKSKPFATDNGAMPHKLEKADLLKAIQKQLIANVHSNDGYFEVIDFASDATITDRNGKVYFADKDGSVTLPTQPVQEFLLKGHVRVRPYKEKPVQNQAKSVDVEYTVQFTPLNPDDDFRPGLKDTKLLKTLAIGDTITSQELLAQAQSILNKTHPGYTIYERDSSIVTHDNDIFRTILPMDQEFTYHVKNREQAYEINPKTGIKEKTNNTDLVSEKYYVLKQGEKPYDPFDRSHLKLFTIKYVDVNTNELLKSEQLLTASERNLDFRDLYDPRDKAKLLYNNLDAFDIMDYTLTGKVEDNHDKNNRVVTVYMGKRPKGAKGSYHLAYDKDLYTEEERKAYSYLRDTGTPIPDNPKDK
Briefly: viability-normalized secreted streptokinase activity reduction – plasminogen activation absorbance, OD405, dose response (AID 1914).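 Note: secreted streptokinase activity via plasminogen activation per viability signal from cell pellet.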 The class given is functional, Streptococcus pyogenes M1 GAS.

For another assay, the system named is Streptococcus. Kind of assay: GAS UMAA2166 growth inhibition – luminescence, BacTiterGlo, counter-screen for streptokinase expression inhibitor project, dose response (AID 1915).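 Note: potency for reduction of bacterial viability or growth.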 The class given is functional, organism-based.
Assay [6] can be described thus: viability of PTEN-deleted HCT116 cells – cell-based, HCT116 PTEN knockout, dose response (AID 1047).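 Note: HCT116 colon tumor cells with PTEN knocked out; cells exposed to compound for 60 hours before readout; potency for loss of cell viability measured by luminescence.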 Format: functional.
Assay [7] in a line: viability of HCT116 lacking mutant beta-catenin – cell-based, human colon tumor, dose response (AID 1045).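 Note: HCT116 colon tumor cells with beta catenin knocked out; cells exposed to compound for 60 hours.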 Format: functional.
A short description of assay [8]: P. falciparum Dd2 growth inhibitors, dose response, SYBR Green, cherry-picked samples (AID 1159567). Format: functional, cell-based.

Experimental findings from ChEMBL document CHEMBL1201862, “PubChem BioAssay data set” (2004) are described below.

The structures appear in SMILES notation. The source made the active and inactive calls.

For `Cc1cccn2c(O)c(C(=O)NC3CCCCC3)c(=O)nc12`, the EC50 (in assay [1]; in assay [2]; with H4) was > 120 µM (not active) throughout.
Regarding `Cc1cc(N2CCCCC2)n2ncc(-c3ccc(Cl)cc3)c2n1`, the CC50 in [3] is > 40 µM (active). Besides, the AC50 in assay [4] was 4.92 µM (active).
In the case of `CC(C(=O)N1CCN(C)CC1)N1C(=O)c2ccccc2C1=O` (stereo unspecified), the IC50 at Protein skinhead-1 is > 100 µM (inactive).
Take `Cn1c(NC(=O)/C=C/c2ccccc2)cc(=O)n(C)c1=O`: the EC50 is 14.9 µM (active) in assay [1], 26.1 µM (active) in [2] and 68.7 µM (inconclusive) in the assay with H4.
For the molecule `O=C(COc1ccc(Br)cc1Cl)NC1CCCCC1`, the figures for the concentration giving a half-maximal response (EC50) in assay [1] and in assay [2] were 0.174 µM (active) and 0.128 µM (inconclusive), respectively.
`CC1=C(O)C(=O)[C@@H]2O[C@@H]2C1=O`: the GI50 in the assay on P388/ADR (Mus musculus, P388/ADR) was 1.09 µM (active); in the assay on SN12K1, 11.1 µM (inactive); in the assay on P388 (Mus musculus, P388) it was 0.542 µM (active).
For the molecule `CC(=O)Nc1ccc(S(=O)(=O)N2CCN=C2SCc2ccc(C)cc2)cc1`, the 50% effective concentration (EC50) in assay [1] was 45 µM (active); in assay [2] it was 48.2 µM (active); in assay [5], > 150 µM (not active); in the assay with H4, 8.96 µM (active); on Streptokinase A, > 150 µM (not active); in the assay with Streptococcus it was > 150 µM (not active).
Regarding `CCOC(=O)c1c(NC(=O)CSc2nc3cc(OC)ccc3[nH]2)sc2c1CC(C)(C)NC2(C)C`, the CC50 in assay [3] was 21.6 µM (active).
Same read-out and setting: as for `CC(C)c1nnc(NC(=O)CCC(=O)N2CCN(c3ccc(Cl)cc3)CC2)s1`, the figure is > 40 µM (active).
In the case of `Cc1ccc(Cn2nc(C)cc2C(=O)Nc2ccccc2Cl)cc1`, the EC50 in [1] was 1.49 µM (active); in [2], 21.3 µM (active); in the assay with H4 it was 33.9 µM (active).
For `CCCCSc1nc(O)c(C(=O)OCC)cc1C#N`, the IC50 on Protein skinhead-1 was > 100 µM (inactive).
Same read-out and setting: under `Clc1ccc(OCc2cnc(Cl)s2)cc1` stands 13.2 µM (active).
Turning to `O=[N+]([O-])c1ccc2c(c1)nc1n2CCN(C2CCCCC2)C1`, the EC50 was 17.6 µM (active) in [1] and 80.8 µM (active) in assay [2].
Turning to `CCC(C(=O)Nc1cccc(S(=O)(=O)N(C)c2ccccc2)c1)c1ccccc1` (stereo unspecified), the IC50 at Protein skinhead-1 was > 100 µM (inactive).
As to `COC(=O)c1cccc(CC2(C)C(=O)Nc3ccc(OC(F)(F)F)cc32)c1` (stereo unspecified), the IC50 on Protein skinhead-1 was 88.5 µM (inactive).
Turning to `N#CC(OC1OC(COC2OC(CO)C(O)C(O)C2O)C(O)C(O)C1O)c1ccccc1` (stereo unspecified), the GI50 is > 225 µM (inactive) in the assay with P388/ADR (Mus musculus, P388/ADR); > 225 µM (inactive) in the assay with SN12K1; > 225 µM (inactive) in the assay on P388 (Mus musculus, P388).
In the case of `COc1ccc2o/c(=N/c3cc(F)ccc3F)c(C(N)=O)cc2c1`, the EC50 (in assay [1]; in [2]; in the assay on H4) was > 120 µM (not active) in each case.
In the case of `O=P1(Oc2ccc(Cl)cc2Cl)Oc2cc3ccccc3cc2O1`, the GI50 with P388/ADR (Mus musculus, P388/ADR) is 22.4 µM (inactive); with SN12K1 it was 59.4 µM (inactive); with P388 (Mus musculus, P388), 14 µM (inactive).
On the same counts, the results for `Cc1c2cnccc2c(C)c2c1c1ccccc1n2CCCN` are 0.157 µM (active), 0.222 µM (active) and 0.0931 µM (active).
As for `C=C1CC(OC)(C(O)C(=O)N[C@H]2OCO[C@H]3C2O[C@H](C[C@H](O)COC)C(C)(C)C3OC)O[C@H](C)[C@@H]1C` (stereo partly specified), the GI50 with P388/ADR (Mus musculus, P388/ADR) is < 0.00773 µM (active); with SN12K1, < 0.00773 µM (active); with P388 (Mus musculus, P388), < 0.00773 µM (active).
For `CSCC[C@@H](NC(=O)[C@H](CC(C)C)NC(=O)C(Cc1cnc[nH]1)NC(=O)CNC(=O)[C@@H](NC(=O)[C@H](C)NC(=O)[C@H](Cc1c[nH]c2ccccc12)NC(=O)[C@H](CCC(N)=O)NC(=O)[C@@H](N)CC(N)=O)C(C)C)C(N)=O` (stereo partly specified), the GI50 in the assay with P388/ADR (Mus musculus, P388/ADR) is > 100 µM (inactive); in the assay on SN12K1, > 100 µM (inactive); in the assay with P388 (Mus musculus, P388) it was > 100 µM (inactive).
Take `NC(=O)c1csc(C2OC(CO)C(O)C2O)n1` (stereo unspecified): the GI50 in the assay with P388/ADR (Mus musculus, P388/ADR) was 1.79 µM (inactive); with SN12K1, 77.8 µM (inactive); in the assay with P388 (Mus musculus, P388), 1.86 µM (inactive).
As for `Nc1ncn(C2OC(CO)C(O)C2O)c(=O)n1` (stereo unspecified), the GI50 in the assay with P388/ADR is 0.489 µM (active); in the assay on P388/ADR (Mus musculus, P388/ADR), 0.393 µM (active); in the assay on P388, 0.452 µM (active); in the assay with P388 (Mus musculus, P388), 0.348 µM (active).
On to `Cc1ccc(Nc2nc(/N=C/N(C)C)n[nH]2)cc1C`, for which the EC50 in assay [1] was > 120 µM (not active); in assay [2], > 120 µM (not active); in the assay with H4 it was 28.2 µM (active).
Regarding `FCCCOc1ccc(/C=N/OCc2ccc(Cl)cc2)cc1`, the IC50 on Protein skinhead-1 was > 100 µM (inactive).
Regarding `CCOC(=O)c1ccc(-c2ccc(/C=N/NC(=O)CN(c3ccccc3Cl)S(C)(=O)=O)o2)cc1`, the EC50 in assay [1] was 14.3 µM (active); in assay [2] it was 28.6 µM (active); in the assay on H4, 33.3 µM (active); in assay [6] it was 29.4 µM (active); in [7], 37.6 µM (active).
With `C#CCn1/c(=N/C(=O)c2cc(Cl)sc2Cl)sc2cc(S(N)(=O)=O)ccc21`, the EC50 in assay [5] was 14 µM (active); on Streptokinase A, > 150 µM (not active); in the assay with Streptococcus it was > 150 µM (not active). Further, the CC50 in [3] is > 40 µM (active).
In the case of `O=C(c1cccc(F)c1)N1CC[C@H]2[C@H](CO)Nc3ccc(C#Cc4cccc(F)c4)cc3[C@H]21`, the AC50 in [8] is 4.2 µM (active).
The same measure, in the same setting: as for `CCCC(=O)N1CC2(C1)CN(Cc1ccccc1F)[C@H](CO)c1c2c2ccc(OC)cc2n1C`, the figure is 6.14 µM (active); as for `N#C[C@@H]1[C@H](c2ccccc2C2=CCCCC2)[C@@H](CO)N1S(=O)(=O)c1ccccc1`, 15 µM (active); as for `C/C=C/c1ccc([C@@H]2[C@H](CO)N(CC3CCCC3)C23CN(C(=O)CC2CC2)C3)cc1`, 5.78 µM (active).
The same measure, in the same setting: as for `CCC(=O)Nc1ccc2c(c1)C(=O)N(C)C[C@H](OC)[C@H](C)CN(Cc1cccc(F)c1)[C@@H](C)CO2`, the figure is 11.3 µM (active).
In the case of `CC1(C)CC(=O)c2sc(N3CCCCC3)nc2C1`, the EC50 was 8.85 µM (active) in assay [1], 68.7 µM (active) in [2] and 74 µM (active) in the assay on H4.
On the same counts, the results for `Cc1cc(C)n(CC(O)COc2ccc3ccccc3c2)n1` (stereo unspecified) are 16.4 µM (active), 16.5 µM (active) and 31.3 µM (active).
Consider `Cc1c(-c2ccc(-c3ccccc3F)cc2)nc2ccc(F)cc2c1C(=O)O` [BREQUINAR SODIUM], for which the GI50 was 0.197 µM (active) in the assay with P388/ADR (Mus musculus, P388/ADR); 0.0902 µM (active) with SN12K1; 0.359 µM (active) in the assay on P388 (Mus musculus, P388).
For the molecule `CC[C@](C)(O)C(=O)O[C@H]1C(=O)O[C@@H]2C[C@H]3C(C)=CC(=O)[C@@H](O)[C@]3(C)[C@H]3[C@@]4(O)OC[C@]32[C@@H]1[C@@H](C)[C@H]4O` [GLAUCARUBINONE], the GI50 is 0.664 µM (active) in the assay on P388/ADR (Mus musculus, P388/ADR); 0.05 µM (active) in the assay on SN12K1; 0.0676 µM (active) in the assay on P388 (Mus musculus, P388).
